Measured values reported in US8158657B2, “Heterocycles substituted pyridine derivatives and antifungal agent containing thereof” (Eisai R&D Management Co., Ltd., priority 2005, dated 2012).
Converted amounts (≈) assume the structure as drawn.

Key:
[1] = system: A. fumigatus Tsukuba strain; experiment: Anti-Aspergillus activity, MIC measurement; format: cell-based; conditions: RPMI1640, 42-48 hours at 35° C., visual inspection, read-out: Anti-Aspergillus Activity (minimum inhibitory concentration, MIC)
In short: (§1)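 C. albicans CAF2-1 was grown 48 h at 30° C. in SDB and diluted in RPMI1640 to 1.2×10^3 cells/mL. Frozen A. fumigatus Tsukuba was diluted to 4.5×10^3 cells/mL. Compounds, two-fold serially diluted in DMSO from 2.5 mg/mL, were cultured aerobically with fungi for 42-48 h at 35° C.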

[2] = system: C. albicans CAF2-1 strain; experiment: Anti-Candida activity, MIC measurement; format: cell-based; conditions: CAF21STRAIN, C. albicans CAF2-1, RPMI1640, 42-48 hours at 35° C., visual inspection, read-out: Anti-Candida Activity (minimum inhibitory concentration, MIC)
In short: as §1

SMILES	MIC [1] [µg/mL]	MIC [2] [µg/mL]
Nc1ccc(-c2cc(Cc3ccc(COc4ncccc4F)cc3)no2)c(N)n1 [Example 149, 3-(3-(4-(3-Fluoro-pyridin-2-yloxymethyl)-benzyl)-isoxazol-5-yl)-pyridin-2,6-diamine]	1.56 (≈ 3.99 µM)	6.25 (≈ 16 µM)
Nc1ccc(-c2cc(Cc3ccc(OCc4ccccn4)c(F)c3)no2)c(N)n1 [Example 150, 3-(3-(3-Fluoro-4-(pyridin-2-ylmethoxy)-benzyl)-isoxazol-5-yl)-pyridin-2,6-diamine]	0.78 (≈ 1.99 µM)	0.39 (≈ 0.996 µM)
Nc1ccc(-c2cc(Cc3ccc(OCc4ccc(F)c(F)c4)nc3)no2)c(N)n1 [Example 152, 3-(3-(6-(3,4-Difluoro-benzyloxy)-pyridin-3-ylmethyl)-isoxazol-5-yl)-pyridin-2,6-diamine]	0.39 (≈ 0.953 µM)	0.78 (≈ 1.91 µM)
Nc1ccc(-c2cc(Cc3ccc(OCc4ccc(F)cc4F)nc3)no2)c(N)n1 [Example 153, 3-(3-(6-(2,4-Difluoro-benzyloxy)-pyridin-3-ylmethyl)-isoxazol-5-yl)-pyridin-2,6-diamine]	0.39 (≈ 0.953 µM)	1.56 (≈ 3.81 µM)
Nc1ccc(-c2cc(Cc3ccc(COc4ccccn4)nc3)no2)c(N)n1 [Example 154]	1.56 (≈ 4.17 µM)	0.78 (≈ 2.08 µM)
Cc1ccc(Cc2ccc(Cc3cc(-c4ccc(N)nc4N)on3)s2)cc1 [Example 156, 3-(3-(5-(4-Methyl-benzyl)-thiophen-2-ylmethyl)-isoxazol-5-yl)-pyridin-2,6-diamine]	0.2 (≈ 0.531 µM)	0.2 (≈ 0.531 µM)
Nc1ccc(-c2cc(Cc3ccc(OCc4ccc(F)cn4)c(F)c3)no2)c(N)n1 [Example 157, 3-(3-(3-Fluoro-4-(5-fluoro-pyridin-2-ylmethoxy)-benzyl)-isoxazol-5-yl)pyridin-2,6-diamine]	0.78 (≈ 1.91 µM)	3.13 (≈ 7.65 µM)
Nc1ccc(-c2cc(Cc3ccc(OCc4ccccn4)cc3F)no2)c(N)n1 [Example 158, 3-(3-(2-Fluoro-4-(pyridin-2-ylmethoxy)-benzyl)-isoxazol-5-yl)-pyridin-2,6-diamine]	3.13 (≈ 8 µM)	1.56 (≈ 3.99 µM)
Nc1ccc(-c2cc(Cc3ccc(CCc4ccccn4)cc3)no2)c(N)n1 [Example 159, 3-(3-(4-(2-Pyridin-2-yl-ethyl)-benzyl)-isoxazol-5-yl)-pyridin-2,6-diamine]	3.13 (≈ 8.43 µM)	0.78 (≈ 2.1 µM)
Nc1ccc(-c2cc(Cc3ccn(Cc4cccc(F)c4)c3)no2)c(N)n1 [Example 160, 3-(3-(1-(3-Fluoro-benzyl)-1H-pyrrol-3-ylmethyl)-isoxazol-5-yl)-pyridin-2,6-diamine]	0.78 (≈ 2.15 µM)	0.39 (≈ 1.07 µM)
Nc1ccc(-c2cc(Cc3ccc(Sc4ccccc4)nc3)no2)c(N)n1 [Example 161, 3-(3-(6-Phenylsulfanyl-pyridin-3-ylmethyl)-isoxazol-5-yl)-pyridin-2,6-diamine]	0.39 (≈ 1.04 µM)	0.39 (≈ 1.04 µM)
COc1cccc(COc2ccc(Cc3cc(-c4ccc(N)nc4N)on3)cc2)c1 [Example 162, 3-(3-(4-(3-Methoxy-benzyloxy)-benzyl)-isoxazol-5-yl)-pyridin-2,6-diamine]	0.39 (≈ 0.969 µM)	0.78 (≈ 1.94 µM)
COc1cccc(COc2ccc(Cc3cc(-c4ccc(N)nc4N)on3)cc2)n1 [Example 163, 3-(3-(4-(6-Methoxy-pyridin-2-ylmethoxy)-benzyl)-isoxazol-5-yl)-pyridin-2,6-diamine]	1.56 (≈ 3.87 µM)	3.13 (≈ 7.76 µM)
Nc1ccc(-c2cc(Cc3ccc(Oc4cccnc4)nc3)no2)c(N)n1 [Example 164, 3-(3-(6-(Pyridin-3-yloxy)-pyridin-3-ylmethyl)-isoxazol-5-yl)-pyridin-2,6-diamine]	6.25 (≈ 17.3 µM)	6.25 (≈ 17.3 µM)
COCc1ccc(-c2cc(Cc3ccc(Cc4ccc(C)o4)cc3)no2)c(N)n1 [Example 165]	1.56 (≈ 4.01 µM)	0.78 (≈ 2 µM)
COCc1ccc(-c2cc(Cc3ccc(Oc4ccccc4)nc3)no2)c(N)n1 [Example 167]	0.78 (≈ 2.01 µM)	1.56 (≈ 4.02 µM)
COCc1ccc(-c2cc(Cc3ccc(Cc4ccc(Cl)o4)cc3)no2)c(N)n1 [Example 168, 3-(3-(4-(5-Chloro-furan-2-ylmethyl)-benzyl)-isoxazol-5-yl)-6-methoxymethyl-pyridin-2-ylamine]	0.78 (≈ 1.9 µM)	0.78 (≈ 1.9 µM)
Nc1nc(CO)ccc1-c1cc(Cc2ccc(OCc3ccccc3)cc2)no1 [Example 169]	0.39 (≈ 1.01 µM)	0.39 (≈ 1.01 µM)
Cc1ccc(-c2cc(Cc3ccc(OCc4ccccc4)cc3)no2)c(N)n1 [Example 170, 3-(3-(4-benzyloxy-benzyl)-isoxazol-5-yl)-6-methyl-pyridin-2-ylamine]	0.39 (≈ 1.05 µM)	0.78 (≈ 2.1 µM)
Nc1ncc(Cl)cc1-c1cc(Cc2ccc(COc3ccccn3)cc2)no1 [Example 172]	12.5 (≈ 31.8 µM)	6.25 (≈ 15.9 µM)
Nc1ncc(F)cc1-c1cc(Cc2ccc(OCc3ccccc3)cc2)no1 [Example 173, 3-(3-(4-Benzyloxy-benzyl)-isoxazol-5-yl)-5-fluoro-pyridin-2-ylamine]	0.78 (≈ 2.08 µM)	1.56 (≈ 4.16 µM)

SMILES	MIC [1] [µg/mL]	MIC [2] [µg/mL]
Nc1ncc(F)cc1-c1cc(Cc2ccc(OCc3ccc(F)cn3)cc2)no1 [Example 174, 5-Fluoro-3-(3-(4-(5-fluoro-pyridin-2-ylmethoxy)-benzyl)-isoxazol-5-yl)pyridin-2-ylamine]	1.56 (≈ 3.96 µM)	6.25 (≈ 15.8 µM)
Nc1ncc(F)cc1-c1cc(Cc2ccc(OCc3cc(Cl)ccn3)cc2)no1 [Example 175, 3-(3-(4-(4-Chloro-pyridin-2-ylmethoxy)-benzyl)-isoxazol-5-yl)-5-fluoro-pyridin-2-ylamine]	1.56 (≈ 3.8 µM)	0.78 (≈ 1.9 µM)
Nc1ccc(-c2cc(Cc3ccc(OCc4ccccn4)cc3)no2)cn1 [Example 177, 5-(3-(4-(Pyridin-2-ylmethoxy)-benzyl)-isoxazol-5-yl)-pyridin-2-ylamine]	0.78 (≈ 2.18 µM)	0.39 (≈ 1.09 µM)
Cc1ccc(Cc2ccc(Cc3cc(-c4ccc(N)nc4)on3)cc2)o1 [Example 178, 5-(3-(4-(5-Methyl-furan-2-ylmethyl)-benzyl)-isoxazol-5-yl)-pyridin-2-ylamine]	0.2 (≈ 0.579 µM)	0.39 (≈ 1.13 µM)
Nc1ccc(-c2cc(Cc3ccc(OCc4ccccc4)nc3)no2)cn1 [Example 179, 5-(3-(6-Benzyloxy-pyridin-3-ylmethyl)-isoxazol-5-yl)-pyridin-2-ylamine]	0.39 (≈ 1.09 µM)	0.78 (≈ 2.18 µM)
Nc1ccc(-c2cc(Cc3ccc(OCc4ccncc4)cc3)no2)cn1 [Example 180]	1.56 (≈ 4.35 µM)	0.39 (≈ 1.09 µM)
Nc1ccc(-c2cc(Cc3ccc(Oc4ccccc4)nc3)no2)cn1 [Example 181, 5-(3-(6-Phenoxy-pyridin-3-ylmethyl)-isoxazol-5-yl)-pyridin-2-ylamine]	0.39 (≈ 1.13 µM)	1.56 (≈ 4.53 µM)
Nc1ccc(-c2cc(Cc3ccc(Cc4ccc(Cl)o4)cc3)no2)cn1 [Example 182, 5-(3-(4-(5-Chloro-furan-2-ylmethyl)-benzyl)-isoxazol-5-yl)-pyridin-2-ylamine]	0.2 (≈ 0.547 µM)	> 25
Nc1ccc(-c2cc(Cc3ccc(OCc4cc(Cl)ccn4)cc3)no2)cn1 [Example 183, 5-(3-(4-(4-Chloro-pyridin-2-ylmethoxy)-benzyl)-isoxazol-5-yl)-pyridin-2-ylamine]	0.78 (≈ 1.99 µM)	0.2 (≈ 0.509 µM)
Nc1ccc(-c2cc(Cc3ccc(OCc4ccc(F)cn4)cc3)no2)cn1 [Example 184, 5-(3-(4-(5-Fluoro-pyridin-2-ylmethoxy)-benzyl)-isoxazol-5-yl)-pyridin-2-ylamine]	0.39 (≈ 1.04 µM)	> 25
Nc1ccc(-c2cc(Cc3ccc(Oc4ccccc4F)nc3)no2)cn1 [Example 185, 5-(3-(6-(2-Fluoro-phenoxy)-pyridin-3-ylmethyl)-isoxazol-5-yl)-pyridin-2-ylamine]	0.78 (≈ 2.15 µM)	0.78 (≈ 2.15 µM)
Nc1ccc(-c2cc(Cc3ccc(Oc4ccc(F)cc4)nc3)no2)cn1 [Example 186, 5-(3-(6-(4-Fluoro-phenoxy)-pyridin-3-ylmethyl)-isoxazol-5-yl)-pyridin-2-ylamine]	0.78 (≈ 2.15 µM)	3.13 (≈ 8.64 µM)
Cc1nc(N)ccc1-c1cc(Cc2ccc(COc3ccccn3)cc2)no1 [Example 187]	0.78 (≈ 2.09 µM)	1.56 (≈ 4.19 µM)
Cc1nc(N)ccc1-c1cc(Cc2ccc(OCc3ccccc3)cc2)no1 [Example 188, 5-(3-(4-Benzyloxy-benzyl)-isoxazol-5-yl)-6-methyl-pyridin-2-ylamine]	0.78 (≈ 2.1 µM)	1.56 (≈ 4.2 µM)
Nc1ncccc1-c1cc(Cc2ccc(OCc3ccccn3)cc2)on1 [Example 189, 3-(5-(4-(Pyridin-2-ylmethoxy)-benzyl)-isoxazol-3-yl)-pyridin-2-ylamine]	0.2 (≈ 0.558 µM)	0.05 (≈ 0.14 µM)
Cc1ccc(-c2cc(Cc3ccc(COc4ccccn4)cc3)no2)cn1 [Example 190, 2-Methyl-5-(3-(4-(pyridin-2-yloxymethyl)-benzyl)-isoxazol-5-yl)-pyridine]	0.78 (≈ 2.18 µM)	0.78 (≈ 2.18 µM)
Nc1ncccc1-c1cnn(Cc2ccc(OCc3ccccc3)nc2)c1 [Example 191, 3-(1-(6-Benzyloxy-pyridin-3-ylmethyl)-1H-pyrazol-4-yl)-pyridin-2-ylamine]	0.39 (≈ 1.09 µM)	0.2 (≈ 0.56 µM)
Nc1ncccc1-c1cnn(Cc2ccc(Oc3ccccc3)nc2)c1 [Example 193, 3-(1-(6-Phenoxy-pyridin-3-ylmethyl)-1H-pyrazol-4-yl)-pyridin-2-ylamine]	0.78 (≈ 2.27 µM)	0.78 (≈ 2.27 µM)
C#CCOCc1ccc(Cn2cc(-c3cccnc3N)cn2)cc1 [Example 194, 3-(1-(4-Prop-2-ynyloxymethyl-benzyl)-1H-pyrazol-4-yl)-pyridin-2-ylamine]	3.13 (≈ 9.83 µM)	1.56 (≈ 4.9 µM)
Nc1ncccc1-c1cnn(Cc2ccc(COCC3CC3)cc2)c1 [Example 195, 3-(1-(4-Cyclopropylmethoxymethyl-benzyl)-1H-pyrazol-4-yl)-pyridin-2-ylamine]	0.78 (≈ 2.33 µM)	0.39 (≈ 1.17 µM)
